In patent US9695155B2, “Herbicidal substituted pyrimidinyloxy benzene compounds” (E. I. DU PONT DE NEMOURS AND COMPANY, priority 2013, dated 2017):

Key:
[1] = system: arrowleaf sida; test: Test E postemergence; format: in vivo, Sida rhombifolia
Description: (§1) Seeds of plant species selected from corn (Zea mays), soybean (Glycine max), velvetleaf (Abutilon theophrasti), lambsquarters (Chenopodium album), wild poinsettia (Euphorbia heterophylla), palmer pigweed (Amaranthus palmeri), waterhemp (common waterhemp, Amaranthus rudis), surinam grass (Brachiaria decumbens), large (Lg) crabgrass (Digitaria sanguinalis), Brazilian crabgrass (Digitaria horizontalis), fall panicum (Panicum dichotomiflorum), giant foxtail (Setaria faberii), green foxtail (Setaria viridis), goosegrass (Eleusine indica), johnsongrass (Sorghum halepense), ragweed (common ragweed, Ambrosia elatior), barnyardgrass (Echinochloa crus-galli), sandbur (southern sandbur, Cenchrus echinatus), arrowleaf sida (Sida rhombifolia), Italian ryegrass (Lolium multiflorum), dayflower (Virginia (VA) dayflower, Commelina virginica), field bindweed (Convolvulus arvensis), morningglory (Ipomoea coccinea), nightshade (eastern black nightshade, Solanum ptycanthum), kochia (Kochia scoparia), yellow nutsedge (Cyperus esculentus), cocklebur (common cocklebur, Xanthium strumarium), smartweed (ladysthumb smartweed, and hairy beggarticks (Bidens pilosa), were planted into a silt loam soil and treated preemergence with test chemicals formulated in a non-phytotoxic solvent mixture which included a surfactant.
(§2) At the same time, plants from these crop and weed species and also horseweed (Canada horseweed, Conyza canadensis), waterhemp_RES1, (ALS & Triazine resistant common waterhemp, Amaranthus rudis), and waterhemp_RES2, (ALS & HPPD resistant common waterhemp, Amaranthus rudis) were planted in pots containing Redi-Earth® planting medium (Scotts Company, 14111 Scottslawn Road, Marysville, Ohio 43041) comprising spaghnum peat moss, vermiculite, wetting agent and starter nutrients were treated with postemergence applications of test chemicals formulated in the same manner. Plants ranged in height from 2 to 18 cm for postemergence treatments (1- to 4-leaf stage). Treated plants and controls were maintained in a greenhouse for 14 to 21 days, after which time all species were compared to controls and visually evaluated. Plant response ratings, summarized in Table E, are based on a scale of 0 to 100 where 0 is no effect and 100 is complete control. A dash (-) response means no test result.

[2] = system: fall panicum; test: Test E postemergence; format: in vivo, Panicum dichotomiflorum
Description: as §1, §2

[3] = system: dayflower; test: Test E postemergence; format: in vivo, Commelina virginica
Description: as §1, §2

[4] = system: wild oat; test: Test D postemergence; format: in vivo, Avena fatua
In short: (§3)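 Species were sown in silt loam for preemergence treatment, or grown in peat-based medium to the 1–4-leaf stage (2–18 cm) for postemergence sprays. Test chemicals were formulated in a non-phytotoxic solvent mixture with surfactant. After 7–21 days in a controlled environment, plants were rated visually against controls on a 0 (no effect) to 100 (complete control) scale.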

[5] = system: oilseed rape; test: Test D preemergence; format: in vivo, Brassica napus
In short: as §3

[6] = system: speedwell; test: Test D postemergence; format: in vivo, Veronica persica
In short: as §3

[7] = system: lambsquarters; test: Test D preemergence; format: in vivo, Chenopodium album
In short: as §3

[8] = system: oilseed rape; test: Test D postemergence; format: in vivo, Brassica napus
In short: as §3

[9] = system: winter wheat; test: Test D preemergence; format: in vivo, Triticum aestivum
In short: as §3

[10] = system: spring wheat; test: Test D preemergence; format: in vivo, Triticum aestivum
In short: as §3

[11] = system: speedwell; test: Test D preemergence; format: in vivo, Veronica persica
In short: as §3

[12] = system: bluegrass; test: Test D preemergence; format: in vivo, Poa annua
In short: as §3

[13] = system: wild radish; test: Test D postemergence; format: in vivo, Raphanus raphanistrum
In short: as §3

[14] = system: Italian ryegrass; test: Test D postemergence; format: in vivo, Lolium multiflorum
In short: as §3

[15] = Postemergence, 31 g ai/ha, scale 0 to 100
[16] = Postemergence, 62 g ai/ha, scale 0 to 100
[17] = Postemergence, 125 g ai/ha, scale 0 to 100
[18] = Postemergence, 250 g ai/ha, scale 0 to 100
[19] = postemergence, 16 g ai/ha, scale 0 to 100, 0 no effect, 100 complete control
[20] = postemergence, 8 g ai/ha, scale 0 to 100, 0 no effect, 100 complete control
[21] = 62 g ai/ha, scale 0 to 100 (0 no effect, 100 complete control)
[22] = 125 g ai/ha, scale 0 to 100 (0 no effect, 100 complete control)
[23] = 250 g ai/ha, scale 0 to 100 (0 no effect, 100 complete control)
[24] = 31 g ai/ha, scale 0 (no effect) to 100 (complete control)

Fc1cnc(Oc2ccccc2-n2cc(Br)cn2)nc1 [Compound 10, 2-[2-(4-bromo-1H-pyrazol-1-yl)phenoxy]-5-fluoropyrimidine]
pest or weed control at 31 g/ha ([1]; Sida rhombifolia, post-emergence, Postemergence, 31 g ai/ha, scale 0 to 100, read-out: Plant response rating, Arrowleaf Sida): 50%
pest or weed control at 62 g/ha ([1]; Sida rhombifolia, post-emergence, Postemergence, 62 g ai/ha, scale 0 to 100, read-out: Plant response rating, Arrowleaf Sida): 70%
pest or weed control at 125 g/ha ([1]; Sida rhombifolia, post-emergence, Postemergence, 125 g ai/ha, scale 0 to 100, read-out: Plant response rating, Arrowleaf Sida): 80%
pest or weed control at 250 g/ha ([1]; Sida rhombifolia, post-emergence, Postemergence, 250 g ai/ha, scale 0 to 100, read-out: Plant response rating, Arrowleaf Sida): 85%
pest or weed control at 16 g/ha ([1]; Sida rhombifolia, post-emergence, postemergence, 16 g ai/ha, scale 0 to 100, 0 no effect, 100 complete control, read-out: Plant response rating, Arrowleaf Sida): 40%
pest or weed control at 31 g/ha ([2]; Panicum dichotomiflorum, post-emergence, Postemergence, 31 g ai/ha, scale 0 to 100, read-out: Plant response rating, Panicum, Fall): 0%
pest or weed control at 62 g/ha ([2]; Panicum dichotomiflorum, post-emergence, Postemergence, 62 g ai/ha, scale 0 to 100, read-out: Plant response rating, Panicum, Fall): 0%
pest or weed control at 125 g/ha ([2]; Panicum dichotomiflorum, post-emergence, Postemergence, 125 g ai/ha, scale 0 to 100, read-out: Plant response rating, Panicum, Fall): 0%
pest or weed control at 250 g/ha ([2]; Panicum dichotomiflorum, post-emergence, Postemergence, 250 g ai/ha, scale 0 to 100, read-out: Plant response rating, Panicum, Fall): 0%
pest or weed control at 16 g/ha ([2]; Panicum dichotomiflorum, post-emergence, postemergence, 16 g ai/ha, scale 0 to 100, 0 no effect, 100 complete control, read-out: Plant response rating, Panicum, Fall): 0%
pest or weed control at 31 g/ha ([3]; Commelina virginica, post-emergence, Postemergence, 31 g ai/ha, scale 0 to 100, read-out: Plant response rating, Dayflower, VA): 10%
pest or weed control at 62 g/ha ([3]; Commelina virginica, post-emergence, Postemergence, 62 g ai/ha, scale 0 to 100, read-out: Plant response rating, Dayflower, VA): 40%
pest or weed control at 125 g/ha ([3]; Commelina virginica, post-emergence, Postemergence, 125 g ai/ha, scale 0 to 100, read-out: Plant response rating, Dayflower, VA): 50%
pest or weed control at 250 g/ha ([3]; Commelina virginica, post-emergence, Postemergence, 250 g ai/ha, scale 0 to 100, read-out: Plant response rating, Dayflower, VA): 75%
pest or weed control at 16 g/ha ([3]; Commelina virginica, post-emergence, postemergence, 16 g ai/ha, scale 0 to 100, 0 no effect, 100 complete control, read-out: Plant response rating, Dayflower, VA): 5%

FC(F)(F)c1cnn(-c2ccccc2Oc2ncc(Cl)cn2)c1 [Compound 16]
Plant response rating, Arrowleaf Sida [1, 15]: 70
Plant response rating, Arrowleaf Sida [1, 16]: 75
Plant response rating, Arrowleaf Sida [1, 17]: 80
Plant response rating, Arrowleaf Sida [1, 18]: 90
Plant response rating, Arrowleaf Sida [1, 19]: 50
Plant response rating, Panicum, Fall [2, 15]: 0
Plant response rating, Panicum, Fall [2, 16]: 10
Plant response rating, Panicum, Fall [2, 17]: 20
Plant response rating, Panicum, Fall [2, 18]: 25
Plant response rating, Panicum, Fall [2, 19]: 0
Plant response rating, Dayflower, VA [3, 15]: 10
Plant response rating, Dayflower, VA [3, 16]: 15
Plant response rating, Dayflower, VA [3, 17]: 30
Plant response rating, Dayflower, VA [3, 18]: 40
Plant response rating, Dayflower, VA [3, 19]: 0

Clc1cnc(Oc2cccc(Br)c2-n2cc(Br)cn2)nc1 [Compound 65]
Plant response rating, Arrowleaf Sida [1, 15]: 60
Plant response rating, Arrowleaf Sida [1, 16]: 80
Plant response rating, Arrowleaf Sida [1, 17]: 80
Plant response rating, Arrowleaf Sida [1, 20]: 55
Plant response rating, Arrowleaf Sida [1, 19]: 50
Plant response rating, Panicum, Fall [2, 15]: 5
Plant response rating, Panicum, Fall [2, 16]: 0
Plant response rating, Panicum, Fall [2, 17]: 15
Plant response rating, Panicum, Fall [2, 20]: 0
Plant response rating, Panicum, Fall [2, 19]: 0
Plant response rating, Dayflower, VA [3, 15]: 10
Plant response rating, Dayflower, VA [3, 16]: 10
Plant response rating, Dayflower, VA [3, 17]: 20
Plant response rating, Dayflower, VA [3, 20]: 5
Plant response rating, Dayflower, VA [3, 19]: 5

N#Cc1cccc(Oc2ncc(Cl)cn2)c1-n1cc(-n2ccc(C(F)(F)F)n2)cn1 [Compound 284]
Plant response rating, Oat, Wild ([4]; 31 g ai/ha, scale 0-100): 20
Plant response rating, Oat, Wild [4, 21]: 25
Plant response rating, Oat, Wild [4, 22]: 25
Plant response rating, Oat, Wild [4, 23]: 35
Plant response rating, Oilseed Rape [5, 24]: 0
Plant response rating, Oilseed Rape ([5]; 62 g ai/ha, scale 0-100): 0
Plant response rating, Oilseed Rape ([5]; 125 g ai/ha, scale 0-100): 10
Plant response rating, Oilseed Rape ([5]; 250 g ai/ha, scale 0-100): 10
Plant response rating, Speedwell ([6]; 31 g ai/ha, scale 0-100): 70
Plant response rating, Speedwell [6, 21]: 75
Plant response rating, Speedwell [6, 22]: 100
Plant response rating, Speedwell [6, 23]: 100
Plant response rating, Lambsquarters [7, 24]: 30
Plant response rating, Lambsquarters ([7]; 62 g ai/ha, scale 0-100): 100
Plant response rating, Lambsquarters ([7]; 125 g ai/ha, scale 0-100): 100
Plant response rating, Lambsquarters ([7]; 250 g ai/ha, scale 0-100): 100
Plant response rating, Oilseed Rape ([8]; 31 g ai/ha, scale 0-100): 65
Plant response rating, Oilseed Rape [8, 21]: 70
Plant response rating, Oilseed Rape [8, 22]: 100
Plant response rating, Oilseed Rape [8, 23]: 100
Plant response rating, Wheat, Winter [9, 24]: 15
Plant response rating, Wheat, Winter ([9]; 125 g ai/ha, scale 0-100): 20
Plant response rating, Wheat, Winter ([9]; 250 g ai/ha, scale 0-100): 25
Plant response rating, Wheat, Spring [10, 24]: 10
Plant response rating, Wheat, Spring ([10]; 125 g ai/ha, scale 0-100): 20
Plant response rating, Wheat, Spring ([10]; 250 g ai/ha, scale 0-100): 30
Plant response rating, Speedwell [11, 24]: 0
Plant response rating, Speedwell ([11]; 125 g ai/ha, scale 0-100): 100
Plant response rating, Speedwell ([11]; 250 g ai/ha, scale 0-100): 100
Plant response rating, Bluegrass [12, 24]: 0
Plant response rating, Bluegrass ([12]; 62 g ai/ha, scale 0-100): 15
Plant response rating, Bluegrass ([12]; 125 g ai/ha, scale 0-100): 20
Plant response rating, Bluegrass ([12]; 250 g ai/ha, scale 0-100): 25
Plant response rating, Radish, Wild ([13]; 31 g ai/ha, scale 0-100): 75
Plant response rating, Radish, Wild [13, 21]: 100
Plant response rating, Radish, Wild [13, 22]: 100
Plant response rating, Radish, Wild [13, 23]: 100
Plant response rating, Ryegrass, Italian ([14]; 31 g ai/ha, scale 0-100): 10
Plant response rating, Ryegrass, Italian [14, 21]: 10
Plant response rating, Ryegrass, Italian [14, 22]: 15
Plant response rating, Ryegrass, Italian [14, 23]: 15
